Data published in patent publication US8791050B2, “Herbicidal compositions” (priority 1998, dated 2014).

Columns and labels:
Format in all cases: in vivo
rice [1] = assay: Selectivity: damage to rice, field trial
Procedure: The damage and development of all above-ground parts of the plants were recorded. […] The scores of in each case 4 plots were averaged.
Crop plants were grown outdoors on plots under natural outdoor conditions, and seeds or rhizome pieces of typical harmful plants were laid out or the natural weed growth was utilized.

[2] = system: Echinochloa colona (ECHCO); assay: Herbicidal effect in rice, field trial, Echinochloa colona; settings: post-emergence 2-4-leaf stage, 45 g of AS/ha
Procedure: (§1) The herbicidal efficacy of the active compounds or active compound mixtures was scored visually using the treated plots in comparison to untreated control plots. The damage and development of all above-ground parts of the plants were recorded. Scoring was carried out using a percentage scale (100% effect=all plants killed; 50% effect=50% of the plants and the green parts of the plants killed; 0% effect=no noticeable effect=like control plot). The scores of in each case 4 plots were averaged.
(§2) If the observed activity values already exceed the formal sum of the values for the trials with the individual applications, they also exceed the expected value according to Colby which is calculated using the following formula and which is likewise considered to be an indication of synergism (cf. S. R. Colby; in Weeds 15 (1967) pp. 20 to 22): E=A+B−(A·B/100)
(§3) Crop plants were grown outdoors on plots under natural outdoor conditions, and seeds or rhizome pieces of typical harmful plants were laid out or the natural weed growth was utilized. Treatment with the compositions according to the invention was carried out after the harmful plants had emerged and the crop plants were, generally, at the 2- to 4-leaf stage; in some cases (as stated), application of individual active compounds or active compound combinations was carried out pre-emergence (cf. Example 1) or as a sequential treatment partly pre-emergence and/or post-emergence.
(§4) After the application, for example 2, 4, 6 and 8 weeks after the application, the effect of the preparations was scored visually by comparison with untreated controls (cf. scoring in Example 1). In the field trial as well, the compositions according to the invention have synergistic herbicidal activity against a broad spectrum of economically important weed grasses and broad-leaved weeds. […] Moreover, the effects in essential phases of the scoring period were above the expected values according to Colby (cf. scoring in Example 1), also indicating synergism. In contrast, the crop plants were, as a consequence of the treatments with the herbicidal compositions, damaged only to a small degree, if at all.

Eleusine indica (ELEIN) = assay: Herbicidal effect in rice, field trial, Eleusine indica; settings: Table 4 field trial, post-emergence 2-4-leaf stage, scoring 28 days after application, 45 g of AS/ha
Procedure: as §1, §2, §3
as §4, with “In contrast, the crop plants were, as a consequence of the treatments with the herbicidal compositions, damaged only to a small degree, if at all.” left out

[3] = system: Sagittaria pygmaea (SAGPY); assay: Herbicidal effect in rice, greenhouse trial, Sagittaria pygmaea; settings: Table 5 greenhouse trial, post-emergence 1-2-leaf stage, scoring 20 days after application
Procedure: as §1, §2
Seeds or rhizome pieces of monocotyledonous and dicotyledonous weeds are placed in sandy loam soil in pots, covered with soil and grown in a greenhouse under good growth conditions (temperature, atmospheric humidity, water supply). […] The compositions according to the invention, formulated as wettable powders or as emulsion concentrates, are sprayed, at various dosages, onto the green parts of the plant at an application rate of 600 to 800 l of water/ha (converted). After the test plants have been in the greenhouse for about 3 to 4 weeks under ideal growth conditions, the effect of the preparations is scored visually by comparison with untreated controls. The compositions according to the invention also have a good herbicidal post-emergence activity against a broad spectrum of economically important weed grasses and weeds.
(§5) Frequently, activities of the combinations according to the invention are observed which exceed the formal sum of the activities when the herbicides are applied individually.

rice [4] = assay: Selectivity: damage to rice, greenhouse trial; settings: scoring 20 days after application
[5] = system: Echinochloa crus-galli (ECHCG); assay: Herbicidal effect in rice, greenhouse trial, Echinochloa crus-galli; settings: Table 6 greenhouse trial, post-emergence 3-4-leaf stage, scoring 20 days after application
Procedure: as §1, §2
Seeds or rhizome pieces of monocotyledonous and dicotyledonous weeds are placed in sandy loam soil in pots, covered with soil and grown in a greenhouse under good growth conditions (temperature, atmospheric humidity, water supply). Three weeks after sowing, the test plants are treated at the three-leaf stage with the compositions according to the invention. The compositions according to the invention, formulated as wettable powders or as emulsion concentrates, are sprayed, at various dosages, onto the green parts of the plant at an application rate of 600 to 800 l of water/ha (converted). After the test plants have been in the greenhouse for about 3 to 4 weeks under ideal growth conditions, the effect of the preparations is scored visually by comparison with untreated controls. The compositions according to the invention also have a good herbicidal post-emergence activity against a broad spectrum of economically important weed grasses and weeds.
as §5

[6] = system: Echinochloa crus-galli (ECHCG); assay: Herbicidal effect in rice, field trial, Echinochloa crus-galli
Procedure: as §1, §2, §3, §4

[7] = system: Amaranthus retroflexus (AMARE); assay: Herbicidal effect in rice, field trial, Amaranthus retroflexus; settings: Table 7 field trial, post-emergence 2-4-leaf stage, scoring 28 days after application, 3000 g of AS/ha
Procedure: as §1, §2, §3
as §4, with “In contrast, the crop plants were, as a consequence of the treatments with the herbicidal compositions, damaged only to a small degree, if at all.” left out

Cyperus iria (CYPIR) = assay: Herbicidal effect in rice, field trial, Cyperus iria; settings: Table 14 field trial, post-emergence 3-leaf stage, scoring 42 days after application, 1500 g of AS/ha
Procedure: as §1, §2, §3
as §4, with “In contrast, the crop plants were, as a consequence of the treatments with the herbicidal compositions, damaged only to a small degree, if at all.” left out

[8] = system: Sesbania exaltata (SEBEX); assay: Herbicidal effect in rice, field trial, Sesbania exaltata; settings: Table 10 field trial, post-emergence 2-4-leaf stage, scoring 28 days after application, 32 g of AS/ha
Procedure: as §1, §2
Crop plants were grown outdoors on plots under natural outdoor conditions, and seeds or rhizome pieces of typical harmful plants were laid out or the natural weed growth was utilized. […]
After the application, for example 2, 4, 6 and 8 weeks after the application, the effect of the preparations was scored visually by comparison with untreated controls (cf. scoring in Example 1). […]

[9] = Table 12 field trial, post-emergence 3-leaf stage, scoring 12 days after application, 20 g of AS/ha
[10] = Table 12 field trial, post-emergence 3-leaf stage, scoring 12 days after application, 40 g of AS/ha
[11] = Table 12 field trial, post-emergence 3-leaf stage, scoring 12 days after application, 80 g of AS/ha
[12] = Table 6 greenhouse trial, post-emergence 3-4-leaf stage, 18 g of AS/ha
[13] = Table 6 greenhouse trial, post-emergence 3-4-leaf stage, 37 g of AS/ha
[14] = Table 6 greenhouse trial, post-emergence 3-4-leaf stage, 75 g of AS/ha
[15] = Table 12 field trial, post-emergence 3-leaf stage, scoring 12 days after application, 1250 g of AS/ha
[16] = Table 12 field trial, post-emergence 3-leaf stage, scoring 12 days after application, 2500 g of AS/ha
[17] = Table 12 field trial, post-emergence 3-leaf stage, scoring 12 days after application, 5000 g of AS/ha
[18] = Table 13 field trial, post-emergence 1-2-leaf stage, scoring 28 days after application, 37.5 g of AS/ha

With `CCOC(=O)[C@@H](C)Oc1ccc(Oc2nc3ccc(Cl)cc3o2)cc1` [(A1.1), fenoxaprop-P-ethyl] the “Damage (in %) to rice” value (rice [1]; Table 2 field trial, post-emergence 2-4-leaf stage, scoring 21 days after application, 45 g of AS/ha) was 0%, the “Damage (in %) to rice” value (rice [1]; Table 3 field trial, post-emergence 2-4-leaf stage, scoring 28 days after application, 45 g of AS/ha) was 21% and the “Damage (in %) to rice” value (rice [1]; Table 4 field trial, post-emergence 2-4-leaf stage, scoring 28 days after application, 45 g of AS/ha) was 21%. For the same compound, the “Damage (in %) to rice” value (rice [1]; [9]) was 0%, the “Damage (in %) to rice” value (rice [1]; [10]) was 0% and the “Damage (in %) to rice” value (rice [1]; [11]) was 5%. For the same compound, the “Herbicidal effect (in %) against ECHCO” value ([2]; Table 2 field trial, scoring 21 days after application) was 51%, the “Herbicidal effect (in %) against ECHCO” value ([2]; Table 3 field trial, scoring 28 days after application) was 83% and the “Herbicidal effect (in %) against ELEIN” value (Eleusine indica (ELEIN)) was 80%. For the same compound, the “Herbicidal effect (in %) against SAGPY” value ([3]; 37.5 g of AS/ha) was 0%, the “Herbicidal effect (in %) against SAGPY” value ([3]; 75 g of AS/ha) was 0% and the “Damage (in %) to rice” value (rice [4]; Table 5 greenhouse trial, post-emergence 1-2-leaf stage, 37.5 g of AS/ha) was 0%. The “Damage (in %) to rice” value (rice [4]; Table 5 greenhouse trial, post-emergence 1-2-leaf stage, 75 g of AS/ha) was 8%, the “Damage (in %) to rice” value (rice [4]; [12]) was 0% and the “Damage (in %) to rice” value (rice [4]; [13]) was 0%. For the same compound, the “Damage (in %) to rice” value (rice [4]; [14]) was 3%, the “Herbicidal effect (in %) against ECHCG” value ([5]; 18 g of AS/ha) was 15% and the “Herbicidal effect (in %) against ECHCG” value ([5]; 37 g of AS/ha) was 40%. For the same compound, the “Herbicidal effect (in %) against ECHCG” value ([5]; 75 g of AS/ha) was 82%, the “Herbicidal effect (in %) against ECHCG” value [6, 9] was 80% and the “Herbicidal effect (in %) against ECHCG” value [6, 10] was 95%. For the same compound, the “Herbicidal effect (in %) against ECHCG” value [6, 11] was 97%.
`CCC(=O)Nc1ccc(Cl)c(Cl)c1` [(B1.7), propanil] was tested, and the “Damage (in %) to rice” value (rice [1]; [15]) was 0%, the “Damage (in %) to rice” value (rice [1]; [16]) was 5% and the “Damage (in %) to rice” value (rice [1]; [17]) was 5%. The “Herbicidal effect (in %) against ECHCG” value [6, 15] was 0%, the “Herbicidal effect (in %) against ECHCG” value [6, 16] was 10% and the “Herbicidal effect (in %) against ECHCG” value [6, 17] was 30%.
`CCN(CC)C(=O)SCc1ccc(Cl)cc1` [(B1.11), thiobencarb] was tested, and the “Herbicidal effect (in %) against AMARE” value [7] was 83% and the “Herbicidal effect (in %) against CYPIR” value (Cyperus iria (CYPIR)) was 78%.
For `CCN(C(=O)n1nnn(-c2ccccc2Cl)c1=O)C1CCCCC1` [(B1.15), fentrazamid], the “Herbicidal effect (in %) against SAGPY” value ([3]; 25 g of AS/ha) was 0%, the “Herbicidal effect (in %) against SAGPY” value ([3]; 50 g of AS/ha) was 40% and the “Herbicidal effect (in %) against SAGPY” value ([3]; 100 g of AS/ha) was 80%. The “Damage (in %) to rice” value (rice [4]; Table 5 greenhouse trial, post-emergence 1-2-leaf stage, 25 g of AS/ha) was 0%, the “Damage (in %) to rice” value (rice [4]; Table 5 greenhouse trial, post-emergence 1-2-leaf stage, 50 g of AS/ha) was 0% and the “Damage (in %) to rice” value (rice [4]; Table 5 greenhouse trial, post-emergence 1-2-leaf stage, 100 g of AS/ha) was 0%.
In the case of `CCC/C(=N\OCC(C)Oc1ccc(Cl)cc1)C1=C(O)CC(C2CCCSC2)CC1=O` (stereo not shown) [(B1.31), clefoxidim], the “Damage (in %) to rice” value (rice [4]; [12]) is reported as 0%, the “Damage (in %) to rice” value (rice [4]; [13]) is reported as 0% and the “Damage (in %) to rice” value (rice [4]; [14]) is reported as 0%. The “Herbicidal effect (in %) against ECHCG” value ([5]; 18 g of AS/ha) was 0%, the “Herbicidal effect (in %) against ECHCG” value ([5]; 37 g of AS/ha) was 10% and the “Herbicidal effect (in %) against ECHCG” value ([5]; 75 g of AS/ha) was 83%.
For `Cc1nn(-c2cc(CC(Cl)C(=O)O)c(Cl)cc2F)c(=O)n1C(F)F` (stereo not shown) [(B2.2), carfentrazone], the “Herbicidal effect (in %) against SEBEX” value [8] was 93% and the “Damage (in %) to rice” value (rice [1]; Table 10 field trial, post-emergence 2-4-leaf stage, scoring 28 days after application, 32 g of AS/ha) was 13%.
With `COc1nc(NC(=O)NS(=O)(=O)c2ccccc2C(F)(F)F)nc(C(F)(F)F)n1` [(B2.4), tritosulfuron] the “Damage (in %) to rice” value (rice [1]; [18]) was 0% and the “Herbicidal effect (in %) against ECHCG” value [6, 18] was 0%.
